Results on one molecule are retold here after ChEMBL document CHEMBL5550206, “Identification of 6-Fluorine-Substituted Coumarin Analogues as POLRMT Inhibitors with High Potency and Safety for Treatment of Pancreatic Cancer” (J Med Chem, 2024).

In experiment [1] the test system is MIA PaCa-2. Briefly: Induction of cell arrest in human MIA PaCa-2 cells assessed as late apoptotic cells at 500 nM measured after 4 days by Annexin V-FITC and propidium iodide (PI) staining based assay (reference value: 3.23%). To be noted: time 4 day. It is filed as functional.
Experiment [2] relates to MIA PaCa-2. Nature of the experiment: Induction of cell arrest in human MIA PaCa-2 cells assessed as accumulation of cells at G2 phase at 200 nM measured after 96 hrs by PI staining based flow cytometry (reference value: 11.2%). It is filed as functional.
For experiment [3], the system named is MIA PaCa-2. Briefly: Induction of cell arrest in human MIA PaCa-2 cells assessed as early apoptotic cells at 50 nM measured after 4 days by Annexin V-FITC and propidium iodide (PI) staining based assay (reference value: 1.07%). The format is functional. To be noted: time 4 day.
Experiment [4] concerns MIA PaCa-2. Nature of the experiment: Induction of cell arrest in human MIA PaCa-2 cells assessed as accumulation of cells at G1 phase at 100 nM measured after 96 hrs by PI staining based flow cytometry (reference value: 64%). The format is functional.
Experiment [5] deals with MIA PaCa-2. Briefly: Induction of cell arrest in human MIA PaCa-2 cells assessed as accumulation of cells at S phase at 100 nM measured after 96 hrs by PI staining based flow cytometry (reference value: 16.8%). It is filed as functional.
The test system of experiment [6] is MIA PaCa-2. Nature of the experiment: Induction of cell arrest in human MIA PaCa-2 cells assessed as late apoptotic cells at 50 nM measured after 4 days by Annexin V-FITC and propidium iodide (PI) staining based assay (reference value: 3.23%). The settings on record: time 4 day. It is filed as functional.
Experiment [7] deals with MIA PaCa-2. Nature of the experiment: Induction of cell arrest in human MIA PaCa-2 cells assessed as accumulation of cells at G2 phase at 100 nM measured after 96 hrs by PI staining based flow cytometry (reference value: 11.2%). The format is functional.
For experiment [8], the system named is CAPAN-1. Briefly: Antiproliferative activity against human CAPAN-1 cells assessed as cell viability measured after 168 hrs incubation by SRB assay. To be noted: CAPAN-1, 168 h. The format is functional, cell-based.
Experiment [9] relates to MIA PaCa-2. Briefly: Antiproliferative activity against human MIA PaCa-2 cells assessed as cell viability measured after 168 hrs incubation by SRB assay. It is filed as functional, cell-based. To be noted: MIA PaCa-2, 168 h.
In experiment [10] the test system is MIA PaCa-2. Nature of the experiment: Induction of cell arrest in human MIA PaCa-2 cells assessed as necrotic cells at 500 nM measured after 4 days by Annexin V-FITC and propidium iodide (PI) staining based assay (reference value: 0.82%). It is filed as functional. To be noted: time 4 day.
For experiment [11], the system named is MIA PaCa-2. Nature of the experiment: Induction of cell arrest in human MIA PaCa-2 cells assessed as accumulation of cells at G2 phase at 50 nM measured after 96 hrs by PI staining based flow cytometry (reference value: 11.2%). It is filed as functional.
Experiment [12] concerns MIA PaCa-2. Briefly: Down-regulation of COX1 gene expression in human MIA PaCa-2 cells at 0.1 to 1 uM measured after 12 hrs by RT-qPCR analysis. The format is functional, cell-based. To be noted: dose 0.1-1 µM.
Experiment [13] relates to MIA PaCa-2. Briefly: Reduction in maximal oxygen consumption rate (OCR) in human MIA PaCa-2 cells incubated for 168 hrs. The format is functional, cell-based. The settings on record: dose 1-200 nM.

The source made the active and inactive calls. No cut-off for these calls is given here.

For `CCN(CC)C(=O)[C@@H](C)Oc1cc2oc(=O)cc(-c3ccccc3C)c2cc1F`, the Activity was 3.69% in experiment [1]; 13% in experiment [2]; 1.08% in experiment [3]; 63.6% in experiment [4]; 16.7% in experiment [5]; 4.02% in [6]. Also, the Activity was 11.3% in experiment [7], 1.28% in [10], 10.4% in experiment [11] and “Dose-Dependent Effect” in [13]. Besides, the values for the IC50 in experiment [8] and in [9] were 404 nM and 5 nM, respectively. Moreover, the result in [12] was Active.
